# Patent US3997403A, “Antibiotic G-418 and the production thereof” (Schering Corporation, priority 1975, dated 1976)
# Test system: E. Histolytica
# Experiment: Oral activity against experimental cecal E. Histolytica infections in rats
# Type: in vivo, male Royal Hart rats
# Conditions: for A.D.I. (average degree of infection): scale 0 to 4, controls averaged 2.2
# Description: Table VII and Table VIII set forth in vivo test results which illustrate the antiprotozoal activity of Antibiotic G-418. The host for the tests were recently weaned male Royal Hart rats (3-4 weeks old) weighing about 50-70 g. The test procedure is a modification of one described by R. J. Schnitzer on pages 355-443 in Experimental Chemotherapy, Vol. 1, Academic Press, New York (1963).
# *A.D.I. -- defined as the average degree of infection based upon gross
# observations of pathological changes in the cecum and microscopic
# observations of the number of amoebae found. These observations are
# recorded on a scale of from zero to four, zero representing a
# substantially normal cecum. Untreated but infected controls range from
# about two to four. In the data set forth the controls averaged 2.2.
smiles,measurement,setting,value
Cc1ncc([N+](=O)[O-])n1CCO [Flagyl],Parasitological Cure Negative/Total,"oral 6.5 mg/kg/day, 1 day",0/4
same,A.D.I. (average degree of infection),"oral 6.5 mg/kg/day, 1 day",1.5
same,Parasitological Cure Negative/Total,"oral 6.5 mg/kg/day, 3 days",0/3
same,A.D.I. (average degree of infection),"oral 6.5 mg/kg/day, 3 days",1.7
same,Parasitological Cure Negative/Total,"oral 6.5 mg/kg/day, 6 days",1/4
same,A.D.I. (average degree of infection),"oral 6.5 mg/kg/day, 6 days",0.8
same,Parasitological Cure Negative/Total,"oral 13 mg/kg/day, 6 days",2/6
same,A.D.I. (average degree of infection),"oral 13 mg/kg/day, 6 days",0.8
same,Parasitological Cure Negative/Total,"oral 25 mg/kg/day, 6 days",1/5
same,A.D.I. (average degree of infection),"oral 25 mg/kg/day, 6 days",0.8
